According to patent publication US20240192197A1, “NOVEL SCREENING SYSTEM FOR DRUG TARGET ANTAGONIST BASED ON CELL LIFE/DEATH PHENOTYPE” (CENTER FOR EXCELLENCE IN MOLECULAR CELL SCIENCE, CHINESE …, priority 2021, published 2024):

Target: T1, FKBP12(F36V)-ΔCASP9 fusion protein (Homo sapiens, UniProt P55211+P62942, F37V)
T1 construct: expressed in transfected cells
Test: Verification of screening cell lines: AP1903-induced death of cells expressing target protein-FKBP12(F36V)-ΔCASP9 fusion
Format: cell-based
Conditions: no target protein degradation agent present
From the text: The screening system of the F-C fusion protein of the present invention can be applied to important targets of various diseases.

T1 sequence (P62942+P55211 fused P62942:F37V): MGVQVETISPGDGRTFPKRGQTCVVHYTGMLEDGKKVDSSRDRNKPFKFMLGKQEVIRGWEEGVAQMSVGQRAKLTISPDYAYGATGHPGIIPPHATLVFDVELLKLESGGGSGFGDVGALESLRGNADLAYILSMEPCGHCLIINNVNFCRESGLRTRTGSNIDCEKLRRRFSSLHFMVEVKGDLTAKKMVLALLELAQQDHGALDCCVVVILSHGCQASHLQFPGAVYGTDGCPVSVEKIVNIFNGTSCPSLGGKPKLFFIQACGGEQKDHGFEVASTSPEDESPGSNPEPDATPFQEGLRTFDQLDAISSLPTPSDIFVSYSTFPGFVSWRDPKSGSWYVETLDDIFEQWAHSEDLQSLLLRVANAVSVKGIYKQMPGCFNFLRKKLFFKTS

SMILES: CC[C@H](C(=O)N1CCCC[C@H]1C(=O)O[C@H](CCc1ccc(OC)c(OC)c1)c1cccc(OCC(=O)NCCNC(=O)COc2cccc([C@@H](CCc3ccc(OC)c(OC)c3)OC(=O)[C@@H]3CCCCN3C(=O)[C@@H](CC)c3cc(OC)c(OC)c(OC)c3)c2)c1)c1cc(OC)c(OC)c(OC)c1 [AP1903]
- state of cells expressing target protein-FKBP12(F36V)-ΔCASP9 fusion after AP1903: cells are dead
